Measured values published in US5486541A (Teva Pharmaceutical Industries, Ltd., priority 1991, dated 1996).
Entries after “also recorded” stand apart in the source; their conditions may differ. Read-outs that look alike come from different tables or passages of the source.

Experiments:
MAO-B [1] = biological target: T1, MAO-B (Rattus norvegicus, UniProt P19643); test: biochemical; type: biochemical; details: for IC50: 20 min preincubation at 37° C., PEA 20 μM, read-out: IC50 for Inhibition of MAO-B in Brain Homogenates
T1 sequence (P19643 1-520): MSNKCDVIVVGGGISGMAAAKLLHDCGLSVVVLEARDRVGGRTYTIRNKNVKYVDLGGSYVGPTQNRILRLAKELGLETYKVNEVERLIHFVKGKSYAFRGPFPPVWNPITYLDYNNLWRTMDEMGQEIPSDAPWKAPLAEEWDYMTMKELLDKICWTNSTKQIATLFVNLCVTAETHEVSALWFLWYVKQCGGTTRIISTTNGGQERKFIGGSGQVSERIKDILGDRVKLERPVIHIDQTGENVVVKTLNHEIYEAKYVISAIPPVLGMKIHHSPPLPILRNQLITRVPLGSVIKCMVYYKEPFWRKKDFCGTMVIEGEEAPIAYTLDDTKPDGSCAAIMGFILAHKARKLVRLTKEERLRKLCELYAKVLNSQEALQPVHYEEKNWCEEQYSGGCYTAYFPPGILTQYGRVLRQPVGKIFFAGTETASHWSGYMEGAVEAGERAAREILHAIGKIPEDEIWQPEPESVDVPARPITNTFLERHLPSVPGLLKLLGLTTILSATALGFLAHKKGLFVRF

MAO-A [2] = test: Inhibition of MAO Activity Ex-vivo: Acute Treatment, brain, MAO-A; type: in vivo, rat (male Sprague-Dawley derived); details: rat, ip or po, 2 hours after dosing
MAO-B [3] = test: Inhibition of MAO Activity Ex-vivo: Acute Treatment, brain, MAO-B; type: in vivo, rat (male Sprague-Dawley derived); details: for ED-50 BRAIN MAO-B: rat, ip or po, 2 hours after dosing; for BRAIN MAO-A/MAO-B (measure of selectivity): ratio of ED-50 values, rat brain, ex vivo
MAO-A [4] = biological target: T2, MAO-A (Rattus norvegicus, UniProt P21396); test: biochemical; details: rat brain homogenate; 20 min preincubation at 37° C.; 5-HT 1 mM; read-out: IC50 for Inhibition of MAO-A in Brain Homogenates
T2 sequence (P21396 1-526): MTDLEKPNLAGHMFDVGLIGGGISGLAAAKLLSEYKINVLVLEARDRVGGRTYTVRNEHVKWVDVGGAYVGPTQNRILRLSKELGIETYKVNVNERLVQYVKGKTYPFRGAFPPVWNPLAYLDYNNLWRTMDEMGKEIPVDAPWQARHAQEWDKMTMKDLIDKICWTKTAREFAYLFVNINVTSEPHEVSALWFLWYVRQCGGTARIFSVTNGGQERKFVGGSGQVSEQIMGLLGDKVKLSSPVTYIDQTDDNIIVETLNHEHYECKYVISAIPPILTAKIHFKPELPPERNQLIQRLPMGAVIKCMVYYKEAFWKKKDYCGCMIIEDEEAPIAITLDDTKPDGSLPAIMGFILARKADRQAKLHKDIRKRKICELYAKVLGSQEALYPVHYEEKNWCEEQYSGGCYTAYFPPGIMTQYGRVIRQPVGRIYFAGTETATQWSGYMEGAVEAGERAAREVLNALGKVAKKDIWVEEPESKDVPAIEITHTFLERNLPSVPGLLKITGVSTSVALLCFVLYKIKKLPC

[5] = test system: blood pressure response to tyramine; test: Tyramine Potentiation in Vivo (blood pressure response to tyramine); design: species or system rat; details: for Potentiation of blood pressure response to tyramine: compound 5 mg/kg orally, tyramine 20 mg/kg orally, ratio of areas under the curve of blood pressure
Description: On the previous day a tail artery cannulation was performed to enable direct blood pressure measurements. On the experimental day the cannulae were connected to pressure transducers. The animals were unrestrained and were kept in a glass sided open top tank during the pressure measurements. […] The desired compound was administered 30 minutes after the last dose of tyramine. Tyramine was administered again, in increasing doses, as described above, one hour after the desired compound was administered. […] The tyramine potentiating effect was calculated as a ratio between the areas under the curve of blood pressure measured with tyramine alone (20 mg/kg) and that measured after administration of the desired compounds and tyramine.

MAO-A [6] = test: Inhibition of MAO Activity Ex-vivo: Acute Treatment, liver, MAO-A; type: in vivo, rat (male Sprague-Dawley derived); details: rat, ip or po, 2 hours after dosing
Description: (§1) These experiments were performed essentially according to the protocol of K. F. Tipton and M. B. H. Youdim in CIBA Symposium No. 39, Editors: G. E. W. Wolstenholme and J. Knight, Elsevier, Amsterdam, 1976, pp. 393-403. The MAO enzyme source was a homogenate of rat brain in 0.3M sucrose which was centrifuged at 600 g for 15 minutes. The supernatant was diluted appropriately in 0.05M phosphate buffer and preincubated with serial dilutions of compounds of interest which are listed below for 20 minutes at 37° C. ^14 C-labeled substrates (2-phenylethylamine, hereinafter PEA; 5-hydroxytryptamine, hereinafter 5-HT) were then added and the incubation continued for a further 20 minutes (PEA) or 30-45 minutes (5-HT). Substrate concentrations used were 20 μM (PEA) or 1 mM (5-HT). In the case of PEA the enzyme concentration was chosen so that not more than 10% of the substrate was metabolized during the course of the reaction. The reaction was then stopped by the addition of tranylcypromine (to final concentration of 1 mM) and the incubate filtered over a small column of Amberlite CG-50; buffered to pH 6.3. The column was washed with 1.5 ml water, the eluates pooled and the radioactive content determined by liquid scintillation spectrometry. Since the amine substrates are totally retained on the column, radioactivity in the eluate indicates the production of neutral and acidic metabolites formed as a result of MAO activity. Activity of MAO in the sample was expressed as a percentage of control activity in the absence of inhibitors after subtraction of appropriate blank values. The activity determined using PEA as a substrate is referred to as MAO B activity, and that determined using 5-HT as a substrate is referred to as MAO A activity.
(§2) Rats (male Sprague-Dawley derived) weighing 250±20 g were treated with the desired compound by intraperitoneal injection (ip) or oral gavage (po) and decapitated 2 hours later. Groups of three rats were used for each dose level of the compound and MAO activity was determined in the brain and liver using the general technique described above. The amount of protein in each incubation was determined using the Folin-Lowry method, and enzyme activity was calculated as nmol substrate metabolized per hour incubation for each mg protein. Activity of MAO in tissues from animals treated with inhibitors was expressed as a percentage of the enzyme activity in a group of control animals which were administered the vehicle alone (water in the case of oral gavage, or 0.9% saline in the case of intraperitoneal injection) and killed as above.

MAO-B [7] = test: Inhibition of MAO Activity Ex-vivo: Acute Treatment, liver, MAO-B; type: in vivo, rat (male Sprague-Dawley derived); details: for ED-50 LIVER MAO-B: rat, ip or po, 2 hours after dosing; for LIVER MAO-A/MAO-B (measure of selectivity): ratio of ED-50 values, rat liver, ex vivo
Description: as §1, §2

Parkinson's patients = details: with L-Dopa (and decarboxylase inhibitor); cited from earlier work
[8] = at doses causing nearly complete inhibition of MAO-B; Elsworth et al.; cited from earlier work
[9] = ratio IC50 MAO-A / IC50 MAO-B, rat brain homogenate

| SMILES | IC50 (MAO-B [1]; rat brain homogenate) [nM] | Selectivity MAO-A/MAO-B (in vitro IC50) (MAO-B [1]; [9]) | ED-50 BRAIN MAO-A (MAO-A [2]) [mg/kg] | ED-50 BRAIN MAO-B (MAO-B [3]) [mg/kg] | BRAIN MAO-A/MAO-B (measure of selectivity) (MAO-B [3]) | IC50 (MAO-A [4]) [nM] | ED-50 LIVER MAO-A (MAO-A [6]) [mg/kg] | ED-50 LIVER MAO-B (MAO-B [7]) [mg/kg] | LIVER MAO-A/MAO-B (measure of selectivity) (MAO-B [7]) | also measured |
| --- | --- | --- | --- | --- | --- | --- | --- | --- | --- | --- |
| C#CCNC1CCc2c(F)cc(F)cc21 (single isomer, unassigned; (+)) [(+)-4,6-Difluoro] | 500 | 2 | 2.9 | 3.7 | 1 | 800 | – | – | – | – |
| C#CCNC1CCc2c(F)cccc21.Cl (single isomer, unassigned; (+)) [(+)-4-F, (+)-4-Fluoro-N-propargyl-1-aminoindan hydrochloride] | 5.2 | 65 | > 1.0 | 0.33 | > 3 | 340 | > 1.0 | 0.17 | > 5.9 | Potentiation of blood pressure response to tyramine [5]: 1.55 fold |
| C#CCNC1CCc2cc(F)ccc21.Cl (single isomer, unassigned; (+)) [(+)-5-F, (+)-5-Fluoro-N-propargyl-1-aminoindan hydrochloride] | 5.7 | 24 | > 0.1 | 0.07 | > 1.4 | 140 | > 0.1 | 0.07 | > 1.4 | Potentiation of blood pressure response to tyramine [5]: 2.25 fold |
| C#CCNC1CCc2ccc(F)cc21.Cl (single isomer, unassigned; (+)) [(+)-6-F, (+)-6-Fluoro-N-propargyl-1-aminoindan hydrochloride] | 0.22 | – | – | – | – | 2800 | 5.2 | – | 40 | Selectivity MAO-A/MAO-B (in vitro IC50) (MAO-B [1]): 1244; MAO-B selectivity in vitro (in words) (MAO-B [1]; in vitro): much more selective than the parent non-fluorinated compound and more selective than the other fluorinated derivatives; Potentiation of blood pressure response to tyramine [5]: 1.2 fold; tyramine potentiating effect (in words) ([5]; rat, 5 mg/kg oral, listed as (+)-6-F-N-propargyl-1-aminoindan, hydrochloride, 5 mg/kg): lowest potentiating effect as compared to the (+)-5-F and (+)-4-F derivatives; also recorded: does not cause significant potentiation of tyramine; also recorded: a dose 35 times higher results practically in no tyramine potentiation; ED-50 BRAIN MAO-A (MAO-A [2]; hydrochloride, 120 min): 21.3 mg/kg; ED-50 BRAIN MAO-B (MAO-B [3]; hydrochloride, 120 min): 0.14 mg/kg; ED-50 BRAIN MAO-B (MAO-B [3]; listed as (+)-6-F-N-propargyl-1-aminoindan, hydrochloride, 120 min): 0.14 mg/kg; BRAIN MAO-A/MAO-B (measure of selectivity) (MAO-B [3]; hydrochloride): 152; ED-50 LIVER MAO-B (MAO-B [7]; hydrochloride, 120 min): 0.13 mg/kg |
| C#CCNC1CCc2ccc(F)cc21.Cl (single isomer, unassigned; (-)) [(-)-6-F, (-)-6-Fluoro-N-propargyl-1-aminoindan hydrochloride] | 12000 | – | – | – | – | 40000 | – | – | – | Selectivity MAO-A/MAO-B (in vitro IC50) (MAO-B [1]; ratio IC50 MAO-A / IC50 MAO-B, rat brain homogenate, hydrochloride): 3; ED-50 BRAIN MAO-A (MAO-A [2]; hydrochloride, 120 min): 23 mg/kg; ED-50 BRAIN MAO-B (MAO-B [3]; hydrochloride, 120 min): 0.45 mg/kg; BRAIN MAO-A/MAO-B (measure of selectivity) (MAO-B [3]; hydrochloride): 51; ED-50 LIVER MAO-B (MAO-B [7]; hydrochloride, 120 min): < 0.5 mg/kg |
| C#CCN(C)[C@H](C)Cc1ccccc1 [(-)-deprenyl] | – | – | – | – | – | – | – | – | – | clinical effect on addition to L-Dopa treatment (in words) (Parkinson's patients): improvements in akinesia and overall functional capacity as well as the elimination of "on-off" type fluctuations; also recorded: enhances and prolongs the effect of L-Dopa; "cheese effect" of (-)-deprenyl (in words) [8]: not causing the "cheese effect" |
| C#CCNC1CCc2c(F)cccc21.Cl (centres unmarked) [Example 4-F, 4-Fluoro-N-propargyl-1-aminoindan hydrochloride] | 5.8 | 86 | 1.4 | 0.22 | 6 | 500 | 2.4 | 0.13 | 18.5 | – |
| C#CCNC1CCc2cc(F)ccc21.Cl (centres unmarked) [Example 5-F, 5-Fluoro-N-propargyl-1-aminoindan hydrochloride] | 6 | 116 | 2.3 | 0.4 | 6 | 700 | 2.2 | 0.06 | 36.7 | – |
| C#CCNC1CCc2ccc(Cl)cc21.Cl (centres unmarked) [Example 6-Cl, 6-Chloro-N-propargyl-1-aminoindan hydrochloride] | 7.7 | 896 | 10 | 1.7 | 5.8 | 6900 | – | – | – | – |
| C#CCNC1CCc2ccc(F)cc21 (centres unmarked) [Example 6-F, 6-Fluoro-1-propargylaminoindan] | 6.2 | 645 | 22 | 0.13 | 170 | 4000 | – | – | – | – |
| C#CCNC1CCc2ccccc21 (centres unmarked) [H, N-propargyl-1-aminoindan, reference compound] | – | – | 1.2 | 0.07 | – | – | 5 | 0.06 | – | – |
| NCCc1ccc(O)cc1 [Tyramine, reference compound] | – | – | – | – | – | – | – | – | – | effect of tyramine alone on blood pressure (in words) ([5]; tyramine alone, oral, 5, 10 and 20 mg/kg): caused increase of blood pressure |
